In publication PMC7355964, “Enhancement in Oral Absorption of Ceftriaxone by Highly Functionalized Magnetic Iron Oxide Nanoparticles” (Pharmaceutics, 2020):
Entries after “also recorded” stand apart in the source; their conditions may differ.

Legend:
[1] = In vivo oral pharmacokinetics studies; design: species or system Rabbits (Oryctolaguscuniculus); conditions: rabbit, oral CFT aqueous solution
Description: The availability of CFT and internal standard cephalexin (CEP) in plasma was determined through reverse phase HPLC protocol developed and validated in our laboratories. The protein precipitation method was taken into account for extracting drug from plasma. Plasma (200 µL) containing both drugs was blended and vortexed with ACN (400 µL) for 2 min and the precipitate was separated by centrifugation at 15,483 G for 10 min. The acquired supernatant was concentrated in vacuum and reconstituted in buffer (TBAH, 100 µL; pH 7.0). A volume of 25 µL was injected into the HPLC system Shimadzu, LC20A (Shimadzu, Kyoto, Japan) equipped with a purospher C18 (5 µm, 250 × 4.6 mm) column. The mobile phase was comprised of ACN and TBAH buffer (0.005 M, pH 7.0) in a ratio of 25:75. The flow rate was adjusted to 1 mL/min, and the wavelength selected was 220 nm.
Animal studies were conducted under institutional guidelines by following the principals of institutional animal care. The studies were approved by the Ethics Committee of International Center for Chemical and Biological Sciences, University of Karachi (Project identification code ICCBS/CBSCR/IEC-014/2018; approved date 06-04-2018). All animals were healthy and purchased for Dow University of Health Sciences OJHA campus Karachi, Pakistan. Rabbits (Oryctolaguscuniculus) with 1.2 kg normal body weight were chosen for the assessment of oral in vivo pharmacokinetics studies. Rabbits were held under standard quarantine conditions with free access to food and water for 12 h. Before conducting the in vivo studies, rabbits were kept under fasting conditions but with free access to water. Rabbits were divided into three distinct categories (n = 4). The first category was given CFT-MIH-MNPs suspension at 25 mg/kg body weight portion. Rabbits of the second and third categories were provided with CFT in oral aqueous solution at 25 and 50 mg/kg body weight. Blood samples (1mL) were collected via marginal ear vein using an insulin plastic syringe at various intervals within 24 h. After centrifugation at 2688 G for 10 min, plasma was acquired and stored at –20 °C. Pharmacokinetics parameters were assessed by linear trapezoidal standard using a non-compartmental model from individual drug plasma concentrations with reference to a time curve for CFT after oral administration of nanoformulation and controls separately. The estimations of maximum drug plasma concentration (Cmax) and time to reach maximum plasma concentration (Tmax) were obtained from the drug plasma concentration curves. These parameters were utilized to ascertain the pharmacokinetics parameters area under the curve from zero to last quantifiable value (AUC0-24), mean residence time (MRT) and clearance (Cl).

[2] = design: method as in PMID 23143633; conditions: ref [35]; cited from earlier work

Cmax ([1]; albino, plasma, 50 mg/kg): 2000 ± 600 ng/mL
MRT ([1]; albino, plasma, 50 mg/kg): 8.4 ± 0.1 h
Tmax ([1]; albino, plasma, 50 mg/kg): 1.5 h
AUC(0-t) ([1]; albino, plasma, 50 mg/kg, read-out: AUC0-24): 16100 ± 3700 ng·h/mL
Clearance ([1]; 50 mg/kg): 3.91 ± 0.4 L/h
Volume distribution ([1]; 50 mg/kg): 33.0 ± 1.94 L
Clearance ([1]; 50 mg/kg, listed as CFT Solution): 3.9 ± 0.4 L/h
Compound: CO/N=C(\C(=O)N[C@@H]1C(=O)N2C(C(=O)O)=C(CSc3nc(=O)c(=O)[nH]n3C)CS[C@H]12)c1csc(N)n1 [CFT, Ceftriaxone]
CFT detection in blood plasma (HPLC) ([1]; 25 mg/kg): no drug was detected; also recorded: no detection of CFT in the blood plasma
pH (early neutral pH) [2]: about 6.7
